Assay results published in publication PMC11956017, “Design of Benzyl-triazolopyrimidine-Based NADPH Oxidase Inhibitors Leads to the Discovery of a Potent Dual Covalent NOX2/MAOB Inhibitor” (Journal of Medicinal Chemistry, 2025).

Tested on: dehydrogenase domain of csNOX5
Experiment: NADPH depletion assay on csNOX5 dehydrogenase domain
Assay type: biochemical, Cylindrospermum stagnale
Conditions: 10 μM inhibitor; 1 μM purified protein, 250 μM NADPH
Protocol: A series of derivatives were synthesized and tested at 10 μM against the dehydrogenase domain of NOX5 from Cylindrospermum stagnale (C. stagnale, CsNOX5; Figure 2B).
The NADPH depletion assay for IC50 determinations was performed as described[10] with modifications for covalent inhibitors, which require longer incubation times. Briefly, the catalytic activity was measured by monitoring the absorbance at 340 nm with a Cary 100 UV–vis spectrophotometer (Varian). A 1 μM portion of purified protein was added in a final volume of 130 μL of 50 mM HEPES pH 7.5 and supplemented with 300 μM FAD. Inhibitors were added at varying concentrations and incubated for 1 h at 25 °C.

Row | Structure (SMILES) | % INHIBITION csNOX5 DEHYDROGENASE DOMAIN
1 | CC(=O)N1CCN(c2ncnc3c2nnn3Cc2ccccc2)CC1 [Compound 7b, 1-(4-(3-Benzyl-3H-[1,2,3]triazolo[4,5-d]pyrimidin-7-yl)piperazin-1-yl)etan-1-one] | 40.5 ± 14.8%
2 | C=CC(=O)Nc1ccc(Sc2ncnc3c2nnn3Cc2ccccc2)cc1 [Compound 7d, N-(4-((3-Benzyl-3H-[1,2,3]triazolo[4,5-d]pyrimidin-7-yl)thio)phenyl)acrylamide] | 28.1 ± 2.8%
3 | Oc1ncnc2c1nnn2Cc1ccccc1 [Compound 1, 3-benzyl-3H-[1,2,3]triazolo[4,5-d]pyrimidin-7-ol] | 0%
4 | CS(=O)(=O)Oc1ncnc2c1nnn2Cc1ccccc1 [Compound 2] | 15.1 ± 2.5%
5 | CC(C)(C)OC(=O)N1CCN(c2ncnc3c2nnn3Cc2ccccc2)CC1 [Compound 5, tert-Butyl 4-(3-benzyl-3H-[1,2,3]triazolo[4,5-d]pyrimidin-7-yl)piperazine-1-carboxylate] | 16.9 ± 8.2%
6 | C=CC(=O)N1CCN(c2ncnc3c2nnn3Cc2ccccc2)CC1 [Compound 7a, 1-(4-(3-Benzyl-3H-[1,2,3]triazolo[4,5-d]pyrimidin-7-yl)piperazin-1-yl)prop-2-en-1-one] | 12.0 ± 3.0%
7 | Nc1ncnc2c1nnn2Cc1ccccc1 [Compound 4, 3-Benzyl-3H-[1,2,3]triazolo[4,5-d]pirimidin-7-amina] | 28.0 ± 9.2%
8 | Cl.c1ccc(Cn2nnc3c(N4CCNCC4)ncnc32)cc1 [Compound 6, 3-Benzyl-7-(piperazin-1-yl)-3H-[1,2,3]triazolo[4,5-d]pyrimidine Hydrochloride] | 7.0 ± 3.2%
